# Measured values: US10059733B2 (NUCORION PHARMACEUTICALS, INC., priority 2014, dated 2018)
# Read-outs that look alike come from different tables or passages of the source.
# How the values were obtained:
# RPK9 cells = test: TC50 assay in gemcitabine resistant (dCK deficient) RPK9 cells, 48 h; conditions: read-out: TC50 (μM) in RPK9 cells at 48 hr
# Procedure: (§1) Huh7 cells were maintained at 37° C. in a humidified atmosphere at 5% CO2 in DMEM containing 10% FBS. […] The cells were then treated with each compound at concentrations ranging from 500 μM to 0 μM in triplicate in DMEM media containing 2% FBS and 0.5% DMSO and without phenol red. After 48 h of treatment at 37° C., the relative number of living cells in each well was determined by using the CellTiter 96 system (Promega) according to the manufacturer's instructions. The 3-(4,5-dimethylthiazol-2-yl)-5-(3-carboxymethoxyphenyl)-2-(4-sulfophenyl)-2H-tetrazolium (MTS) and phenazine methosulfate (PMS) reagents were added to each well of the 96-well plate and the plate was incubated at 37° C. for approximately 2 h. The absorbance at 490 nm and 650 nm in each well was then determined by using a Flexstation 3 microplate reader ([…]). The absorbance determined at 650 nm was then subtracted from the absorbance determined at 490 nm to correct for light scattering. The corrected absorbance values representing the relative number of live cells in each condition were then plotted as a function of compound concentration, and the data were then fit to the following sigmoidal Emax equation by using Kaleidagraph: y=(Emax*x^Slope)/(TC50^Slope+x^Slope) where y is the relative corrected absorbance value, Emax is the maximum relative inhibition, x is the compound concentration, TC50 is the concentration of the compound at which the total cell population is reduced by 50%, and Slope is the slope of the curve.
# PK9 and RPK9 cells were maintained at 37° C. in a humidified atmosphere at 5% CO2 in Roswell Park Memorial Institute (RPMI) media containing 10% FBS. […] The cells were then treated with each compound at concentrations ranging from […] to 0 μM in triplicate in RPMI media containing 2% FBS and 0.5% DMSO and without phenol red. […] The RPK9 cells were derived from the parental PK9 cell line, and are deficient for dCK activity due to the partial deletion of the dCK gene.
# HEK293 = test: TC50 assay with human cancer cell lines, 96 h: HEK293; assay type: cell-based; conditions: HEK293, 96 h, read-out: TC50 HEK293 (μM)
# Procedure: (§2) Huh7 cells were maintained at 37° C. in a humidified atmosphere at 5% CO2 in DMEM containing 10% FBS. […] The cells were then treated with each compound at concentrations ranging from 500 μM to 0 μM in triplicate in DMEM media containing 2% FBS and 0.5% DMSO and without phenol red. After 48 h of treatment at 37° C., the relative number of living cells in each well was determined by using the CellTiter 96 system (Promega) according to the manufacturer's instructions. The 3-(4,5-dimethylthiazol-2-yl)-5-(3-carboxymethoxyphenyl)-2-(4-sulfophenyl)-2H-tetrazolium (MTS) and phenazine methosulfate (PMS) reagents were added to each well of the 96-well plate and the plate was incubated at 37° C. for approximately 2 h. The absorbance at 490 nm and 650 nm in each well was then determined by using a Flexstation 3 microplate reader (Molecular Dynamics). The absorbance determined at 650 nm was then subtracted from the absorbance determined at 490 nm to correct for light scattering. The corrected absorbance values representing the relative number of live cells in each condition were then plotted as a function of compound concentration, and the data were then fit to the following sigmoidal Emax equation by using Kaleidagraph: y=(Emax*x^Slope)/(TC50^Slope+x^Slope) where y is the relative corrected absorbance value, Emax is the maximum relative inhibition, x is the compound concentration, TC50 is the concentration of the compound at which the total cell population is reduced by 50%, and Slope is the slope of the curve.
# (§3) Huh7, HEPG2, HEK293, MCF-7 and BxPC3 cell lines were maintained at 37° C. in a humidified atmosphere at 5% CO2 in DMEM containing 10% FBS. […] The cells were then treated with each compound at concentrations ranging from 500 μM to 0 μM in triplicate in DMEM media containing 2% FBS and 0.5% DMSO and without phenol red.
# [1] = pH stability in aqueous buffer (HPLC/uv)
# Procedure: In order for a prodrug to be orally bioavailable, it must be stable over a wide range of pH values. […] The relative amount of intact prodrug was then determined by first separating the intact prodrug from any potential degradation products by using reverse-phase high performance liquid chromatography (HPLC) and subsequently quantifying the relative amount of remaining prodrug by uv spectrophotometry.
# HCV luciferase replicon = test: IC50 assay: inhibition of the HCV luciferase replicon in Huh7 cells; assay type: cell-based
# Procedure: After 48 h of treatment at 37° C., the media in each well was removed, the cells were gently washed once with phosphate buffered saline (PBS) and subsequently lysed by the addition of Glo Lysis Buffer (Promega). After a 15 min incubation at room temperature to allow for complete cell lysis, Bright-Glo luciferase reagent (Promega) was added to each well and the relative luciferase activity in each well was determined by using a Glowmax 96 microplate luminometer (Promega).
# IC50 values determined using the above methods for inhibition of the HCV luciferase replicon in Huh7 cells are set forth in Table 1.
# All compounds were purified by HPLC.
# MCF-7 = test: TC50 assay with human cancer cell lines, 96 h: MCF-7; assay type: cell-based; conditions: MCF7, 96 h, read-out: TC50 MCF-7 (μM)
# Procedure: as §2, §3
# Huh7 cells = test: Cell transport: cytotoxicity in Huh7 cells with or without ENT1 inhibitor NBTI; conditions: for CC50: Homo sapiens, Huh-7, 48 h
# Procedure: as §1
# To this end, Huh7 cells or PK9 cells were seeded in 96-well plates at a density of 5,000 cells/well or 2,500 cells/well, respectively, and the plates were incubated at 37° C. for 24 h to allow for cell attachment. The media was then removed from the plates and replaced with media containing 2% FBS, 0.5% DMSO and 10 μM NBTI. […] Subsequently, the cells were treated with each compound at final concentrations ranging from 500 μM to 0 μM in triplicate in media containing 2% FBS, 0.5% DMSO and 10 μM NBTI. […] The TC50 values of each compound in the presence or absence of the ENT1 inhibitor were then compared.
# [2] = In vivo toxicology assessment in mice; parameters: species or system CD-1 ICR mice; conditions: oral gavage 20 mg/kg in Formulation I
# Procedure: All in vivo toxicology assays were performed with CD-1 ICR mice (female, 4-6 week old; 20-30 gram body weight). Compound 1 (Table 1) was first dissolved in Formulation I containing 5% dimethyl sulfoxide (DMSO), 20% solutol, 20% PEG 400, and 55% sodium phosphate (50 mM, pH 6.0). Five mice were administered with Compound 1 in Formulation I via oral gavage at a dosage of 20 mg/kg while two other mice were orally treated with Formulation I alone (no inhibitor).
# genotype 1b HCV = test: Oral administration to HCV-infected chimpanzee, viral load (genotype 1b); assay type: in vivo; conditions: Chimpanzee I
# Procedure: Via oral gavage, two HCV-infected chimpanzees I (male, 56.49 kg and 11 years old; genotype 1b HCV) and II (male, 61.91 kg and 34 years old; genotype 1a HCV) each received a single dosage of 200 mg of Compound 1 in Formulation I while the HCV-infected chimpanzee III (male, 56.19 kg and 18 years old; genotype 1a HCV) was administered a single dosage of 260 mg of the non-phosphorylated analog of Compound 1 (Table 1) in Formulation I. After 12 hours, the HCV viral titer decreased from 24,100 to 10,200 IU/ml (or 58% drop) in Chimpanzee I, from 38,500 to 27,000 IU/ml (or 30% drop) in Chimpanzee II, and from 154,000 to 142,000 IU/ml (or 8% drop) in Chimpanzee III. […] All animals were fasted overnight prior to dosing and a minimum of 2 hours prior to scheduled blood sample collections. Viral load determinations were performed on plasma samples using the HCV TaqMan assay (COBAS® AmpliPrep/COBAS® TaqMan® HCV Test, Version 2, Test Code 1220) for quantitative analysis. […] There were no adverse effects, illness, nor distress seen with the three chimpanzees during the study requiring veterinarian intervention.
structure (smiles),measurement,setting,value
"CCCC(CCC)C(=O)Nc1ccn([C@@H]2O[C@H](CO[P@@](=O)(N[C@@H](C)C(=O)OC(C)C)Oc3ccccc3)[C@@H](O)C2(F)F)c(=O)n1 [Compound 1, (S)-isopropyl 2-(((S)-(((2R,3R,5R)-4,4-difluoro-3-hydroxy-5-(2-oxo-4-(2-propylpentanamido)pyrimidin-1(2H)-yl)tetrahydrofuran-2-yl)methoxy)(phenoxy)phosphoryl)amino)propanoate]",CC50,RPK9 cells,24.2 ± 6.4 µM
same,CC50,HEK293,4.1 ± 0.5 µM
same,% of Compound 1 remaining,[1]; Pretreatment,100%
same,% of Compound 1 remaining,"[1]; pH 1, aqueous buffer, 40° C., 4 hours, 200 μM",58%
same,% of Compound 1 remaining,"[1]; pH 2, aqueous buffer, 40° C., 4 hours, 200 μM",85%
same,% of Compound 1 remaining,"[1]; pH 4, aqueous buffer, 40° C., 4 hours, 200 μM",92%
same,% of Compound 1 remaining,"[1]; pH 6, aqueous buffer, 40° C., 4 hours, 200 μM",100%
same,% of Compound 1 remaining,"[1]; pH 8, aqueous buffer, 40° C., 4 hours, 200 μM",47%
same,IC50,"HCV luciferase replicon; Hepatitis C virus, Huh-7, 48 h",0.0884 ± 0.0133 µM
same,Therapeutic Index (TC50/IC50),"HCV luciferase replicon; TC50 in Huh7 / IC50 HCV replicon, 48 h",198
same,CC50,MCF-7,1.76 ± 0.67 µM
same,CC50,Huh7 cells; read-out: TC50 (μM) in Huh7 cells at 48 h With NBTI,16.4 µM
same,CC50,Huh7 cells; read-out: TC50 (μM) in Huh7 cells at 48 h Without NBTI,17.4 µM
same,requirement of the ENT1 transporter for cell entry,Huh7 cells; conclusion from TC50 with/without 10 μM NBTI in Huh7 and PK9 cells,do not require the ENT1 transporter for cell entry
same,internal organs after sacrifice,[2]; after Day 7,healthy with no abnormality
same,signs of toxicity,[2]; seven day period of observation,no signs of toxicity
same,drop of HCV viral titer after 12 hours,genotype 1b HCV; single oral dosage 200 mg,58%
same,HCV viral titer after 12 hours,"genotype 1b HCV; single oral dosage 200 mg in Formulation I, titer before 24,100 IU/ml","10,200 IU/ml"
